Structures are written as SMILES.

T1 sequence (P47871 26-477): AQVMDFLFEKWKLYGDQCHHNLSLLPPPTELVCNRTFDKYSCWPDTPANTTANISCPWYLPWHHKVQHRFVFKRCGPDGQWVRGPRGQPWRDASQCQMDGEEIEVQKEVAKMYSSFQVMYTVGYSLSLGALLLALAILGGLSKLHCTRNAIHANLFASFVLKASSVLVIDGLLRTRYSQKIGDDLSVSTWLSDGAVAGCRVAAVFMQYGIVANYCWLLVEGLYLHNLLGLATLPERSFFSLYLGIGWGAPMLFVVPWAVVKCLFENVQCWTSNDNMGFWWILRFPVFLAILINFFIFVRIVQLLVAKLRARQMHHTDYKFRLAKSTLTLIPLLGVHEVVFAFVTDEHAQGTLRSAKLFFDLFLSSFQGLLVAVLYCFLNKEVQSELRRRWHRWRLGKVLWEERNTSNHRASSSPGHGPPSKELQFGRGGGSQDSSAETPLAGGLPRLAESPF

One assay concerns the target T1, human glucagon receptor (Homo sapiens, UniProt P47871).
T1 construct: expressed in transfected cells; host or cells: BHK (baby hamster kidney) cells
Nature of the assay: Glucagon Binding Assay (III). As to conditions: BHK cell membranes, WGA SPA beads, 125I-glucagon; read-out: Glu Bd Assay (III) IC50. Put shortly: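 Membranes from BHK cells transfected with the human receptor, prepared at 4 °C, were used in a WGA-bead scintillation proximity binding format. Plates were shaken for 4 hours, left to settle 8–48 hours and then counted. Non-specific binding was defined with 500 nM glucagon.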
As for `CCCCN1C(=O)c2ccc(NC(=O)N(Cc3ccc(C(=O)Nc4nn[nH]n4)cc3)c3ccc(C4CCCCC4)cc3)cc2C1=O` [Example 636, 4-[3-(N′-Butylphthalimid-4-yl)-1-(4-cyclohexylphenyl)ureidomethyl]-N-(2H-tetrazol-5-yl)benzamide], the IC50 amounted to 5 nM.

With `CC(C)(C)c1ccc(N(Cc2ccc(C(=O)Nc3nn[nH]n3)cc2)C(=O)Nc2cc(C(F)(F)F)cc(C(F)(F)F)c2)cc1` [Example 330, 4-[3-(3,5-Bis(trifluoromethyl)phenyl)-1-(4-tert-butylphenyl)ureidomethyl]-N-(2H-tetrazol-5-yl)benzamide], the IC50 was found to be 44 nM.

In the case of `CC(C)(C)c1ccc(N(Cc2ccc(C(=O)Nc3nn[nH]n3)cc2)C(=O)Nc2ccc3ncsc3c2)cc1` [Example 257, 4-[3-Benzothiazol-6-yl-1-(4-tert-butylphenyl)ureidomethyl]-N-(2H-tetrazol-5-yl)benzamide], the IC50 is 684 nM.

Consider `O=C(O)CCNC(=O)c1ccc(CN(C(=O)Nc2ccc(OC(F)(F)F)cc2)C2CCC(C3CC3)CC2)cc1` (stereo not shown) [Example 249, 3-{4-[1-(4-Cyclopropylcyclohexyl)-3-(4-trifluoromethoxyphenyl)ureidomethyl]benzoylamino}propionic acid], for which the IC50 was determined as 320 nM.

`CSc1cccc(NC(=O)N(Cc2ccc(C(=O)Nc3nn[nH]n3)cc2)c2ccc(C3CCCCC3)cc2)c1` [Example 302, 4-[1-(4-Cyclohexylphenyl)-3-(3-methylsulfanylphenyl)ureidomethyl]-N-(2H-tetrazol-5-yl)benzamide]: the IC50 amounted to 62 nM.

For the compound `O=C(Nc1nn[nH]n1)c1ccc(CN(C(=O)Nc2ccc3c(c2)S(=O)(=O)CC3)c2ccc(C3CCCCC3)cc2)cc1` [Example 258, 4-[1-(4-Cyclohexylphenyl)-3-(1,1-dioxo-2,3-dihydro-1H-1-benzo[b]thiophen-6-yl)ureidomethyl]-N-(2H-tetrazol-5-yl)benzamide], the IC50 was found to be 773 nM.

With `CC(C)(C)c1ccc(N(Cc2ccc(C(=O)NCCC(=O)O)cc2)C(=O)Oc2ccc(Cl)cc2Cl)cc1` [Example 407, 3-(4-{[(4-tert-Butylphenyl)-(2,4-dichlorophenoxycarbonyl)amino]methyl}benzoylamino)propionic acid], the half-maximal inhibitory concentration (IC50) was 756 nM.

Regarding `CSc1ccc(OC(=O)N(Cc2ccc(C(=O)NCCC(=O)O)cc2)c2ccc(C3CCCCC3)cc2)cc1` [Example 418, 3-(4-{[(4-Cyclohexylphenyl)-(4-methylsulfanylphenoxycarbonyl)amino]methyl}benzoylamino)propionic acid], the IC50 stood at 472 nM.

For the compound `CCC(C)c1ccc(N(Cc2ccc(C(=O)Nc3nn[nH]n3)cc2)C(=O)Nc2cccc(S(C)(=O)=O)c2)cc1` (stereo not shown) [Example 446, 4-[1-(4-sec-Butylphenyl)-3-(3-methylsulfonylphenyl)ureidomethyl]-N-(2H-tetrazol-5-yl)benzamide], the half-maximal inhibitory concentration (IC50) was determined as 522 nM.

Consider `CCOC(=O)N1CCC(NC(=O)N(Cc2ccc(C(=O)NCCC(=O)O)cc2)[C@H]2CC[C@H](C(C)(C)C)CC2)CC1` [Example 245, 4-{3-(trans-4-tert-Butylcyclohexyl)-3-[4-(2-carboxyethylcarbamoyl)benzyl]ureido}piperidine-1-carboxylic acid ethyl ester], for which the IC50 came to 4050 nM.

As for `CCCCN1C(=O)c2ccc(NC(=O)N(Cc3ccc(C(=O)Nc4nn[nH]n4)cc3)c3ccc(C(C)(C)C)cc3)cc2C1=O` [Example 378, 4-[3-(2-Butyl-1,3-dioxo-2,3-dihydro-1H-isoindol-5-yl)-1-(4-tert-butylphenyl)ureidomethyl]-N-(2H-tetrazol-5-yl)benzamide], the IC50 was 23 nM.

As for `O=C(O)CCNC(=O)c1ccc(CN(NC(=O)c2ccc(OC(F)(F)F)cc2)C2CCC(c3ccccc3)CC2)cc1` (stereo not shown) [Example 426, 3-{4-[N-(4-Phenylcyclohexyl)-N′-(4-trifluoromethoxybenzoyl)hydrazinomethyl]benzoylamino}propionic acid], the IC50 was found to be 338 nM.

Take `CS(=O)(=O)Cc1cccc(NC(=O)N(Cc2ccc(C(=O)Nc3nn[nH]n3)cc2)c2ccc(C3CCCCC3)cc2)c1` [Example 369, 4-[1-(4-Cyclohexylphenyl)-3-(3-methylsulfonylmethylphenyl)ureidomethyl]-N-(2H-tetrazol-5-yl)benzamide]: the IC50 was found to be 558 nM.

With `O=C(Nc1nn[nH]n1)c1ccc(CN(CC(c2ccccc2)c2ccccc2)C(=O)Cc2cccc(OC(F)(F)F)c2)cc1` [Example 529, 4-({(2,2-Diphenylethyl)-[2-(3-trifluoromethoxyphenyl)acetyl]amino}methyl)-N-(2H-tetrazol-5-yl)benzamide], the IC50 was determined as 470 nM.

As to `O=C(Nc1nn[nH]n1)c1ccc(CN(C(=O)Nc2cc(C(F)(F)F)cc(C(F)(F)F)c2)c2ccc(C3CCCCC3)cc2)cc1` [Example 271, 4-[3-(3,5-Bis-trifluoromethylphenyl)-1-(4-cyclohexylphenyl)ureidomethyl]-N-(2H-tetrazol-5-yl)benzamide], the IC50 was determined as 9 nM.

With `CC(C)(C)C1CCC(N(Cc2ccc(C(=O)Nc3nn[nH]n3)cc2)C(=O)c2cccc3[nH]ccc23)CC1` (stereo not shown) [Example 516, 4-{[(4-tert-Butylcyclohexyl)-(1H-indol-4-ylcarbonyl)amino]methyl}-N-(2H-tetrazol-5-yl)benzamide], the IC50 came out at 2490 nM.

`CC(C)(C)c1ccc(N(Cc2ccc(C(=O)NCCC(=O)O)cc2)C(=O)Nc2ccc3c(c2)C(=O)N(CC2CC2)C3=O)cc1` [Example 643, 3-{4-[3-(N′-[Cyclopropylmethyl]phthalimid-4-yl)-1-(4-tert-butylphenyl)ureidomethyl]benzoylamino}propionic acid]: the IC50 came out at 38 nM.

As to `CC(C)(C)C1CCC(N(Cc2ccc(C(=O)Nc3nn[nH]n3)cc2)C(=O)NCCc2ccccc2)CC1` (stereo not shown) [Example 324, 4-[1-(4-tert-Butylcyclohexyl)-3-phenethylureidomethyl]-N-(2H-tetrazol-5-yl)benzamide], the IC50 amounted to 277 nM.

Consider `CC(C)(C)C1CCC(N(Cc2ccc(C(=O)NCCC(=O)O)cc2)C(=O)Nc2ccc(Cl)cc2)CC1` (stereo not shown) [Example 34, 3-{4-[1-(4-tert-Butylcyclohexyl)-3-(4-chlorophenyl)ureidomethyl]benzoyl}aminopropionic acid], for which the concentration for half-maximal inhibition (IC50) came to 462 nM.

As for `CC(C)(C)[C@H]1CC[C@@H](N(Cc2ccc(C(=O)Nc3nn[nH]n3)cc2)C(=O)Nc2cc(C(F)(F)F)cc(C(F)(F)F)c2)CC1` [Example 603, 4-[3-(3,5-Bis(trifluoromethyl)phenyl)-1-(cis-4-tert-butylcyclohexyl)ureidomethyl]-N-(2H-tetrazol-5-yl)benzamide], the IC50 is 26 nM.

Consider `CC(C)(C)C1CCC(N(Cc2ccc(C(=O)NCCC(=O)O)cc2)NC(=O)c2cc(C(F)(F)F)cc(C(F)(F)F)c2)CC1` (stereo not shown) [Example 428, 3-{4-[N′-(3,5-Bis(trifluoromethyl)benzoyl)-N-(4-tert-butylcyclohexyl)hydrazinomethyl]benzoylamino}propionic acid], for which the IC50 is 410 nM.

The assay is the same for the next values; noted with them: Glu Bd Assay (III) IC50 (nM), BHK cell membranes, WGA SPA beads, 125I-glucagon.
Compound `CC(C)(C)[C@H]1CC[C@H](N(Cc2ccc(C(=O)N3CCCC(C(=O)O)C3)cc2)C(=O)Nc2ccc(OC(F)(F)F)cc2)CC1` (relative stereo) [Example 94, 1-{4-[1-(trans-4-tert-Butylcyclohexyl)-3-(4-trifluoromethoxyphenyl)ureidomethyl]benzoyl}piperidine-3-carboxylic acid] came in with an IC50 of 1000 nM.

(Values after patent US6875760B2 (Novo Nordisk A/S, priority 1999, dated 2005).)
